Where “and” joins values, the source holds several entries; their conditions need not be identical. Identical values can stand only once.
Key:
MCF7-CDK7-D97N cells = assay: Growth assay (SRB), MCF7 CDK7-D97N knock-in; type: cell-based, human; conditions: for % Growth: MCF7 CDK7 D99N, biological reps
In short: (§1)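 CRISPR-Cas9 knock-in lines were treated with increasing drug concentrations two days after seeding, then grown 4 days. Cell number by SRB staining; IC50 from non-linear regression.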

22Rv1-CDK7-D97N cells = assay: Growth assay (SRB), 22Rv1 CDK7-D97N knock-in pool; type: cell-based, human; conditions: for % Growth: 22Rv1 CDK7 D99N
In short: as §1

LNCaP cells = assay: Growth assay (SRB), LNCaP; type: cell-based, human
In short: (§2)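 Doubling times come from exponential growth fits of live-cell confluency, which was imaged every 6 h after drug addition on day 2 post-seeding. IC50 values derive from SRB cell counts after a 4-day exposure to a concentration series, also started on day 2.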

22Rv1-SamR cells = assay: Growth assay (SRB), Samuraciclib-resistant 22Rv1; type: cell-based, human; conditions: for % Growth: 22Rv1 SamR, 4 days, biological reps
In short: as §2

22Rv1 cells = assay: Growth assay (SRB), 22Rv1; type: cell-based, human
In short: as §2

LNCaP-CDK7-D97N cells = assay: Growth assay (SRB), LNCaP CDK7-D97N knock-in; type: cell-based, human; conditions: for % Growth: LNCaP CDK7 D99N
In short: as §1

CDK7-WT = molecular target: T1, CDK7-WT (Homo sapiens, UniProt P50613); assay: NanoBRET Target Engagement assay, K-10 tracer displacement in HEK293 cells; type: binding; conditions: for % Occupacy: CDK7 WT, replicates N1-N3
T1 construct: expressed in transfected cells; host or cells: HEK293
T1 sequence (P50613 whole entry): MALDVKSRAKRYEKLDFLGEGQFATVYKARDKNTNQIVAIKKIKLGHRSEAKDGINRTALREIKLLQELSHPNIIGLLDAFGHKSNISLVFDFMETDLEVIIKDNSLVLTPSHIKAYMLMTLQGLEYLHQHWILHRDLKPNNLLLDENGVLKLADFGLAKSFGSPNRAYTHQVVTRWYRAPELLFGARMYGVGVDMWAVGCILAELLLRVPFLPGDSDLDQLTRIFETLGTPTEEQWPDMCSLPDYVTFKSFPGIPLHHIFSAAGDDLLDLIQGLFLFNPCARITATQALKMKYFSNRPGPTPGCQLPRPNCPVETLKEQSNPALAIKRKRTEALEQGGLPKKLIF
In short: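 BRET ratio taken as acceptor 590–610 nm over donor 410–490 nm ×1000. EC50 obtained by nonlinear regression; occupancy from tracer and vehicle controls.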

MCF7 cells = assay: Growth assay (SRB), MCF7; type: cell-based, human; conditions: for % Growth: biological reps
In short: as §2

**Q.** What does the source list for `CN(C)C/C=C/C(=O)Nc1ccc(C(=O)N[C@@]2(C)CCC[C@@H](Nc3ncc(Cl)c(-c4c[nH]c5ccccc45)n3)C2)nc1` [SY-1365]?
**A.** Resistance (Fold) (MCF7-CDK7-D97N cells; MCF7-CDK7-D97N vs MCF7 WT): 0.19 fold; IC50 (MCF7-CDK7-D97N cells; MCF7-CDK7-D97N, 4 days, SRB): 0.17 nM; % Growth (MCF7-CDK7-D97N cells; Log10 Conc. (nM) 3.70, 4 days): -16.61%; % Growth (MCF7-CDK7-D97N cells; Log10 Conc. (nM) -1.12, 4 days): 78.15% and 70.71% and 82.37% and 82.39%; % Growth (MCF7-CDK7-D97N cells; Log10 Conc. (nM) -1.72, 4 days): 83.93% and 103.71% and 98.90%; Sensitivity in growth assays (22Rv1-CDK7-D97N cells; 22Rv1-CDK7-D97N vs parental): remaining sensitive; % Growth (22Rv1-CDK7-D97N cells; Log10 Conc. (nM) 0.09): 48.76% and 39.48%; % Growth (22Rv1-CDK7-D97N cells; Log10 Conc. (nM) 0.69): 32.85% and 26.42%; % Growth (22Rv1-CDK7-D97N cells; Log10 Conc. (nM) 1.29): 16.40% and 13.77%; % Growth (22Rv1-CDK7-D97N cells; Log10 Conc. (nM) 1.89): -9.18% and -1.73%; % Growth (22Rv1-CDK7-D97N cells; Log10 Conc. (nM) 3.70): -12.72%; % Growth (22Rv1-CDK7-D97N cells; Log10 Conc. (nM) -0.52): 87.25% and 62.47%; % Growth (22Rv1-CDK7-D97N cells; Log10 Conc. (nM) -1.12): 95.17% and 93.47%; % Growth (22Rv1-CDK7-D97N cells; Log10 Conc. (nM) -1.72): 98.87%; % Growth (LNCaP cells; Log10 Conc. (nM) 0.09): 56.73% and 37.69%; % Growth (LNCaP cells; Log10 Conc. (nM) 1.29): 1.68% and -7.82%; % Growth (LNCaP cells; Log10 Conc. (nM) 2.49): -22.61% and -22.62%; % Growth (LNCaP cells; Log10 Conc. (nM) 3.70): -23.75%; % Growth (LNCaP cells; Log10 Conc. (nM) -0.52): 84.52% and 77.18%; % Growth (LNCaP cells; Log10 Conc. (nM) -1.12): 86.80% and 137.61%; % Growth (LNCaP cells; Log10 Conc. (nM) -1.72): 105.02%; Sensitivity in growth assays (22Rv1-SamR cells; 22Rv1-SamR): remained sensitive; Resistance (Fold), fold increase in IC50 of 22Rv1-SamR relative to 22Rv1 (22Rv1-SamR cells; 22Rv1-SamR vs 22Rv1): 1.0 fold; % Growth (22Rv1-SamR cells; Log10 Conc. (nM) 0.09): 50.67% and 45.27%; % Growth (22Rv1-SamR cells; Log10 Conc. (nM) 0.69): 34.60% and 27.89%; % Growth (22Rv1-SamR cells; Log10 Conc. (nM) 1.29): 26.06% and 19.62%; % Growth (22Rv1-SamR cells; Log10 Conc. (nM) 1.89): -2.71% and -9.74%; % Growth (22Rv1-SamR cells; Log10 Conc. (nM) 2.49): -0.26% and -8.99%; % Growth (22Rv1-SamR cells; Log10 Conc. (nM) -0.52): 81.58% and 73.70%; % Growth (22Rv1-SamR cells; Log10 Conc. (nM) -1.12): 90.71% and 90.62%; % Growth (22Rv1 cells; 22Rv1, Log10 Conc. (nM) 0.09): 53.71% and 72.88%; % Growth (22Rv1 cells; 22Rv1, Log10 Conc. (nM) 0.69): 19.90% and 19.70%; % Growth (22Rv1 cells; 22Rv1, Log10 Conc. (nM) 1.29): 16.91% and 19.74%; % Growth (22Rv1 cells; 22Rv1, Log10 Conc. (nM) 1.89): -7.92% and -2.43%; % Growth (22Rv1 cells; 22Rv1, Log10 Conc. (nM) 2.49): -5.73% and -3.13%; % Growth (22Rv1 cells; 22Rv1, Log10 Conc. (nM) 3.10): 1.12%; % Growth (22Rv1 cells; 22Rv1, Log10 Conc. (nM) 3.70): -11.26%; % Growth (22Rv1 cells; 22Rv1, Log10 Conc. (nM) -0.52): 94.30% and 92.75%; % Growth (22Rv1 cells; 22Rv1, Log10 Conc. (nM) -1.12): 97.77% and 104.48%; % Growth (22Rv1 cells; 22Rv1, Log10 Conc. (nM) -1.72): 103.08%; % Growth (22Rv1 cells; 22Rv1, Log10 Conc. (nM) 0.09, 4 days, biological reps): 64.96% and 59.63%; % Growth (22Rv1 cells; 22Rv1, Log10 Conc. (nM) 0.69, 4 days, biological reps): 28.69% and 25.19%; % Growth (22Rv1 cells; 22Rv1, Log10 Conc. (nM) 1.29, 4 days, biological reps): 21.21% and 16.89%; % Growth (22Rv1 cells; 22Rv1, Log10 Conc. (nM) 1.89, 4 days, biological reps): 0.26% and -4.14%; % Growth (22Rv1 cells; 22Rv1, Log10 Conc. (nM) 2.49, 4 days, biological reps): 1.87% and -4.53%; % Growth (22Rv1 cells; 22Rv1, Log10 Conc. (nM) 3.10, 4 days, biological reps): -0.83% and -4.41%; % Growth (22Rv1 cells; 22Rv1, Log10 Conc. (nM) 3.70, 4 days, biological reps): 0.68% and -4.68%; % Growth (22Rv1 cells; 22Rv1, Log10 Conc. (nM) -0.52, 4 days, biological reps): 89.73% and 90.72%; % Growth (22Rv1 cells; 22Rv1, Log10 Conc. (nM) -1.12, 4 days, biological reps): 93.97% and 90.45%; % Growth (LNCaP-CDK7-D97N cells; Log10 Conc. (nM) 0.09): 63.76% and 49.89%; % Growth (LNCaP-CDK7-D97N cells; Log10 Conc. (nM) 0.69): 29.39% and 16.32%; % Growth (LNCaP-CDK7-D97N cells; Log10 Conc. (nM) 1.29): 15.69% and 13.01%; % Growth (LNCaP-CDK7-D97N cells; Log10 Conc. (nM) 1.89): -2.84% and -7.62%; % Growth (LNCaP-CDK7-D97N cells; Log10 Conc. (nM) 2.49): -7.57% and -9.89%; % Growth (LNCaP-CDK7-D97N cells; Log10 Conc. (nM) 3.10): -8.80% and -12.02%; % Growth (LNCaP-CDK7-D97N cells; Log10 Conc. (nM) 3.70): -8.97%; % Growth (LNCaP-CDK7-D97N cells; Log10 Conc. (nM) -0.52): 95.67% and 71.20%; % Growth (LNCaP-CDK7-D97N cells; Log10 Conc. (nM) -1.12): 99.75% and 96.82%; % Growth (LNCaP-CDK7-D97N cells; Log10 Conc. (nM) -1.72): 90.05%; Sensitivity in growth assays (LNCaP-CDK7-D97N cells; LNCaP-CDK7-D97N vs parental): remaining sensitive; EC50 (CDK7-WT; CDK7-WT, K-10 0.5 µM, HEK293): 29 nM; % Occupacy (CDK7-WT; Log10 Conc. (nM) 0.09): 5.29% and 2.02% and 1.09%; % Occupacy (CDK7-WT; Log10 Conc. (nM) 0.69): 14.34% and 11.55% and 9.36%; % Occupacy (CDK7-WT; Log10 Conc. (nM) 1.29): 40.53% and 32.34% and 29.30%; % Occupacy (CDK7-WT; Log10 Conc. (nM) 1.89): 74.64% and 88.34% and 86.64%; % Occupacy (CDK7-WT; Log10 Conc. (nM) 2.49): 98.27% and 99.01% and 95.02%; % Occupacy (CDK7-WT; Log10 Conc. (nM) 3.10): 99.51% and 100.88% and 97.39%; % Occupacy (CDK7-WT; Log10 Conc. (nM) 3.70): 102.75% and 104.94% and 102.49%; % Occupacy (CDK7-WT; Log10 Conc. (nM) 4.30): 86.99% and 86.89% and 86.73%; % Occupacy (CDK7-WT; Log10 Conc. (nM) -0.52): 10.37% and -0.26% and 2.09%; % Occupacy (CDK7-WT; Log10 Conc. (nM) -1.12): 9.68% and 0.78% and 5.84%; % Occupacy (CDK7-WT; Log10 Conc. (nM) -1.72): 8.54% and -2.37% and 7.63%; IC50 (MCF7 cells; 4 days, SRB): 0.89 nM; % Growth (MCF7 cells; Log10 Conc. (nM) 3.70, 4 days): -12.18%; % Growth (MCF7 cells; Log10 Conc. (nM) -0.52, 4 days): 88.75% and 65.89% and 87.60% and 88.37%; % Growth (MCF7 cells; Log10 Conc. (nM) -1.12, 4 days): 97.02% and 94.10% and 95.64% and 94.95%; % Growth (MCF7 cells; Log10 Conc. (nM) -1.72, 4 days): 90.31% and 94.08% and 94.26%
